Data published in US20250313563A1, “GLYCOGEN SYNTHASE KINASE 3 INHIBITORS AND USES THEREOF” (The Broad Institute, Inc., priority 2022, published 2025).
Read-outs that look alike come from different tables or passages of the source.

How the values were obtained:
[1] = biological target: GSK3α (GST-full length GSK3α) (Homo sapiens (Human), UniProt P49840); assay: GSK3α TR-FRET kinase assay; format: biochemical
In short: (§1)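 1 nM GST-GSK3α/β + cpd, 30 min preinc; add 200 nM biotin-pS645 GS(631-650) peptide + ATP (α 4 μM / β 2 μM, or 1 mM); 100 min RT, 50 mM Tris pH 7.5, 20 mM MgCl2, 1% DMSO; EDTA stop; SA-d2/Tb-pSer641 Ab 60 min; 665/615 ratio → IC50.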

[2] = biological target: GSK3b (GST-full length GSK3b) (Homo sapiens (Human), UniProt P49841); assay: GSK3b TR-FRET kinase assay; format: biochemical
In short: as §1

[3] = 1 nM GSK3α, 4 μM ATP, 30 minute preincubation, Table 16, read-out: GSK3-A TR-FRET BIOCHEMICAL (TR-FRET)
[4] = 1 nM GSK3b, 2 μM ATP, 30 minute preincubation, Table 16, read-out: GSK3-B TR-FRET BIOCHEMICAL (TR-FRET)
[5] = read-out: GSK3-A (TR-FRET 1 mM ATP), GMean, IC50, 1 mM ATP, geometric mean
[6] = read-out: GSK3-B (TR-FRET 1 mM ATP), GMean, IC50, 1 mM ATP, geometric mean
[7] = 1 nM GSK3α, 4 μM ATP, 30 minute preincubation, Table 16, read-out: GSK3-A TR-FRET BIOCHEMICAL (TR-FRET), IC50
[8] = 1 nM GSK3b, 2 μM ATP, 30 minute preincubation, Table 16, read-out: GSK3-B TR-FRET BIOCHEMICAL (TR-FRET), IC50
[9] = 1 nM GSK3α, 4 μM ATP, 30 minute preincubation, geometric mean, read-out: GSK3-A TR-FRET BIOCHEMICAL (TR-FRET), GMean, IC50
[10] = 1 nM GSK3b, 2 μM ATP, 30 minute preincubation, geometric mean, read-out: GSK3-B TR-FRET BIOCHEMICAL (TR-FRET), GMean, IC50
[11] = 1 nM GSK3α, 4 μM ATP, 30 minute preincubation, read-out: GSK3-A TR-FRET BIOCHEMICAL (TR-FRET), IC50
[12] = 1 nM GSK3b, 2 μM ATP, 30 minute preincubation, read-out: GSK3-B TR-FRET BIOCHEMICAL (TR-FRET), IC50

Sequence of GSK3α (GST-full length GSK3α) (P49840 whole entry): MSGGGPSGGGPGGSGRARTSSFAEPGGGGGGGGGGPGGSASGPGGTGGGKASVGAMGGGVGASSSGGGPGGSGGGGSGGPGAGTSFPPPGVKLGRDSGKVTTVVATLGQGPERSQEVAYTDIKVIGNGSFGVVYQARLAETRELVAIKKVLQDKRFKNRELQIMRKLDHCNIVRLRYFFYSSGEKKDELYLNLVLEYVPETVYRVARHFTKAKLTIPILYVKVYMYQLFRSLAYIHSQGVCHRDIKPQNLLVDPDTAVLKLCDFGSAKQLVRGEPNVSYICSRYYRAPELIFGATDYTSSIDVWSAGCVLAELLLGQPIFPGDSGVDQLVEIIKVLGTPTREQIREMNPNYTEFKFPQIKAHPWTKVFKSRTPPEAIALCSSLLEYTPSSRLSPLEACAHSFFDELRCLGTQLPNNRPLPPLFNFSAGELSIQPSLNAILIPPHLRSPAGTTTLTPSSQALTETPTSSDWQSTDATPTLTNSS
Sequence of GSK3b (GST-full length GSK3b) (P49841 whole entry): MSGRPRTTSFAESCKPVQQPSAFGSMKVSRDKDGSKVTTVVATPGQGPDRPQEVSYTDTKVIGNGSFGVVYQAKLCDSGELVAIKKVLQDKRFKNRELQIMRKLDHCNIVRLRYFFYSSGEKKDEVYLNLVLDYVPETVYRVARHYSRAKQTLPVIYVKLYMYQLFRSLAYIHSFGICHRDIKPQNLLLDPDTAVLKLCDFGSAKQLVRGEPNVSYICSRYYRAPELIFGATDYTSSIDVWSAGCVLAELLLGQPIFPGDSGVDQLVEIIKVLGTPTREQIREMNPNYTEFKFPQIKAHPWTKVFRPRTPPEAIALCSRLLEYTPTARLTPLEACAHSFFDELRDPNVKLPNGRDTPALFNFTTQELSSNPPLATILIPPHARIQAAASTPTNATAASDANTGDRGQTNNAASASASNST

SMILES: C[C@H]1C[C@]2(CCN1S(C)(=O)=O)C1=C(CC(C)(C)CC1=O)Nc1n[nH]cc12 [Compound 926827]
- IC50 [1, 3]: ≤ 100 nM
- IC50 [2, 4]: ≤ 100 nM

SMILES: Cn1nccc1-c1cccc2c1CCC[C@@]21C2=C(CC(C)(C)CC2=O)Nc2n[nH]cc21 [Compound 945552]
- IC50 [1, 3]: 100 to 1000 nM
- IC50 [2, 4]: > 5000 nM

SMILES: Cc1ccc(C(=O)N2CC3(C2)CC2(CO3)C3=C(CC(C)(C)CC3=O)Nc3n[nH]cc32)cc1C (stereo not shown) [Compound 948038]
- IC50 [1, 5]: ≤ 100 nM
- IC50 [2, 6]: 100 to 1000 nM

SMILES: CC[C@]1(c2cccc(N(C)c3ccnc(F)c3)c2)C2=C(CC(C)(C)CC2=O)Nc2n[nH]cc21 [Compound 929453]
- IC50 [1, 7]: 1000 to 5000 nM
- IC50 [2, 8]: > 5000 nM

SMILES: CC[C@]1(c2cccc(-c3cnn4cccnc34)c2)C2=C(CC(C)(C)NC2=O)Nc2n[nH]cc21 [Compound 950830]
- IC50 [1, 7]: ≤ 100 nM
- IC50 [2, 8]: 100 to 1000 nM

SMILES: CC[C@]1(c2ccccc2)C2=C(C[C@](C)(COC)CC2=O)Nc2n[nH]cc21 [Compound 816872]
- IC50 [1, 9]: > 5000 nM
- IC50 [2, 10]: > 5000 nM

SMILES: O=C1C[C@@H](C(F)(F)F)CC2=C1C1(CCOCC1)c1c[nH]nc1N2 [Compound 901478]
- IC50 [1, 7]: 100 to 1000 nM
- IC50 [2, 8]: 100 to 1000 nM

SMILES: CCC1(c2cccc(-c3ccnc4c3CCC4)c2)C2=C(CC(C)(C)CC2=O)Nc2n[nH]cc21 (stereo not shown) [Compound 945606]
- IC50 [1, 3]: ≤ 100 nM
- IC50 [1, 5]: 100 to 1000 nM
- IC50 [2, 4]: 100 to 1000 nM
- IC50 [2, 6]: 1000 to 5000 nM

SMILES: CC(C)C(=O)N1CC2(C1)CC1(CO2)C2=C(CC(C)(C)CC2=O)Nc2n[nH]cc21 (stereo not shown) [Compound 947304]
- IC50 [1, 11]: ≤ 100 nM
- IC50 [2, 12]: 100 to 1000 nM

SMILES: CC[C@@]1(c2cccc(N3CCCCC3)c2)C2=C(CC(C)(C)CC2=O)Nc2n[nH]cc21 [Compound 810371]
- IC50 [1, 9]: > 5000 nM
- IC50 [2, 10]: > 5000 nM

SMILES: CCC1(c2cccc(C(F)(F)F)c2)C2=C(Nc3n[nH]cc31)C(C)CNC2=O (stereo not shown) [Compound 945384]
- IC50 [1, 11]: 1000 to 5000 nM
- IC50 [2, 12]: > 5000 nM

SMILES: CCC1(c2cccc(-c3ccnn3C(C)C)c2)C2=C(CC(C)(C)CC2=O)Nc2n[nH]cc21 (stereo not shown) [Compound 929399]
- IC50 [1, 7]: ≤ 100 nM
- IC50 [2, 8]: ≤ 100 nM

SMILES: CC1(C)CC(=O)C2=C(C1)Nc1n[nH]cc1C21CCN(S(=O)(=O)c2ccccc2OC(F)F)CC1 [Compound 945668]
- IC50 [1, 11]: ≤ 100 nM
- IC50 ([1]; GSK3-A (TR-FRET 1 mM ATP), GMean, IC50, 1 mM ATP, geometric mean): ≤ 100 nM
- IC50 [2, 12]: ≤ 100 nM
- IC50 ([2]; GSK3-B (TR-FRET 1 mM ATP), GMean, IC50, 1 mM ATP, geometric mean): 100 to 1000 nM

SMILES: CC[C@]1(c2cccc(-c3ccnn3C)c2)C2=C(Nc3n[nH]cc31)[C@H](F)C(C)(C)CC2=O [Compound 957508]
- IC50 [1, 3]: > 5000 nM
- IC50 [2, 4]: > 5000 nM

SMILES: CC[C@@]1(c2cccc(-c3ccnn3C)c2)C2=C(CC3(CCS(=O)(=O)CC3)NC2=O)Nc2n[nH]cc21 [Compound 949400]
- IC50 [1, 7]: 1000 to 5000 nM
- IC50 [2, 8]: > 5000 nM

SMILES: CCC1(c2cccc(N(C)C(=O)CN3CCCC3)c2)C2=C(CC(C)(C)CC2=O)Nc2n[nH]cc21 (stereo not shown) [Compound 909202]
- IC50 [1, 7]: 100 to 1000 nM
- IC50 [2, 8]: 1000 to 5000 nM

SMILES: CCC1(c2cccc(N(C)C(=O)CN3CCCC3)c2)C2=C(CC(C)(C)CC2=O)Nc2n[nH]cc21 (stereo not shown) [Compound 913125]
- IC50 [1, 7]: ≤ 100 nM
- IC50 [2, 8]: 100 to 1000 nM

SMILES: CCC1(c2cccc(C3CN(C(C)=O)C3)c2)C2=C(CC(C)(C)CC2=O)Nc2n[nH]cc21 (stereo not shown) [Compound 948779]
- IC50 [1, 3]: 1000 to 5000 nM
- IC50 [2, 4]: > 5000 nM

SMILES: CC[C@]1(c2cccc(C(F)(F)F)c2)C2=C(Nc3n[nH]cc31)[C@H](C)CN(C)C2=O [Compound 883982]
- IC50 [1, 11]: > 5000 nM
- IC50 [2, 12]: > 5000 nM

SMILES: CC1(C)CC2=C(C(=O)N1)C1(CCN(S(=O)(=O)c3cnn(C(C)(C)C)c3)CC1)c1c[nH]nc1N2 [Compound 947835]
- IC50 [1, 9]: ≤ 100 nM
- IC50 [1, 11]: ≤ 100 nM
- IC50 [2, 10]: 100 to 1000 nM
- IC50 [2, 12]: 100 to 1000 nM

SMILES: CCC1(c2cccc(-c3ccnc4c(Cl)cccc34)c2)C2=C(CC(C)(C)NC2=O)Nc2n[nH]cc21 (stereo not shown) [Compound 948659]
- IC50 [1, 9]: > 5000 nM
- IC50 [2, 10]: > 5000 nM

SMILES: CC1(C)CC(=O)C2=C(C1)Nc1n[nH]cc1C21CNC1 [Compound 912075]
- IC50 [1, 7]: 1000 to 5000 nM
- IC50 [2, 8]: > 5000 nM

SMILES: CCC1(c2cccc(N3CCCc4ncccc43)c2)C2=C(CC(C)(C)CC2=O)Nc2n[nH]cc21 (stereo not shown) [Compound 917079]
- IC50 [1, 7]: 100 to 1000 nM
- IC50 [2, 8]: 1000 to 5000 nM

SMILES: CC1(C)CC(=O)C2=C(C1)Nc1n[nH]cc1C21COC2(CN(C(=O)CC3CCCC3)C2)C1 (stereo not shown) [Compound 947293]
- IC50 [1, 11]: ≤ 100 nM
- IC50 [2, 12]: ≤ 100 nM

SMILES: CCC1(c2cccc(-c3cncn3C(C)C)c2)C2=C(CC(C)(C)CC2=O)Nc2n[nH]cc21 (stereo not shown) [Compound 945725]
- IC50 [1, 5]: ≤ 100 nM
- IC50 [2, 6]: 100 to 1000 nM

SMILES: CC[C@@]1(c2ccccc2)C2=C(C[C@@]3(CCNC3=O)CC2=O)Nc2n[nH]cc21 [Compound 950161]
- IC50 [1, 3]: 1000 to 5000 nM
- IC50 [2, 4]: > 5000 nM

SMILES: CC1CCC(CC(=O)N2CC3(C2)CC2(CO3)C3=C(CC(C)(C)CC3=O)Nc3n[nH]cc32)C1 (stereo not shown) [Compound 947269]
- IC50 [1, 11]: ≤ 100 nM
- IC50 [1, 5]: 100 to 1000 nM
- IC50 [2, 12]: ≤ 100 nM
- IC50 [2, 6]: 100 to 1000 nM

SMILES: CCC1(c2cccc(C(F)F)c2)C2=C(CC(C)(C)CC2=O)Nc2n[nH]c(C(F)(F)F)c21 (stereo not shown) [Compound 945710]
- IC50 [1, 3]: ≤ 100 nM
- IC50 [1, 5]: ≤ 100 nM
- IC50 [2, 4]: ≤ 100 nM
- IC50 [2, 6]: ≤ 100 nM

SMILES: CC[C@@H]1C[C@]2(CCO1)C1=C(CC(C)(C)CC1=O)Nc1n[nH]cc12 [Compound 907328]
- IC50 [1, 7]: 100 to 1000 nM
- IC50 [2, 8]: 1000 to 5000 nM

SMILES: CC[C@]1(c2cccc(-c3cnn(CC(=O)N(C)C)c3)c2)C2=C(CC(C)(C)NC2=O)Nc2n[nH]cc21 [Compound 952208]
- IC50 [1, 7]: 100 to 1000 nM
- IC50 [2, 8]: > 5000 nM

SMILES: CC1(C)CC(=O)C2=C(C1)Nc1n[nH]cc1[C@]21CC[C@H](c2ccncc2)CC1 [Compound 949321]
- IC50 [1, 3]: ≤ 100 nM
- IC50 [2, 4]: ≤ 100 nM

SMILES: CCC1(c2cccc(N(C(C)=O)C(C)C)c2)C2=C(CC(C)(C)CC2=O)Nc2n[nH]cc21 (stereo not shown) [Compound 893305]
- IC50 [1, 7]: ≤ 100 nM
- IC50 [2, 8]: ≤ 100 nM

SMILES: CC1(C)CC(=O)C2=C(C1)Nc1n[nH]cc1C21CCC2(CCC(=O)N2)CC1 (stereo not shown) [Compound 913056]
- IC50 [1, 11]: 100 to 1000 nM
- IC50 [2, 12]: 1000 to 5000 nM

SMILES: CCC1(c2cccc(OC)c2)C2=C(CC(C)CC2=O)Nc2n[nH]cc21 (stereo not shown) [Compound 811559]
- IC50 [1, 9]: ≤ 100 nM
- IC50 [2, 10]: 100 to 1000 nM

SMILES: CCC1(c2cccc(-c3ccnc4cc(OC)ccc34)c2)C2=C(CC(C)(C)NC2=O)Nc2n[nH]cc21 (stereo not shown) [Compound 948661]
- IC50 [1, 9]: ≤ 100 nM
- IC50 [2, 10]: 100 to 1000 nM

SMILES: CCc1cc(-c2cccc(C3(CC)C4=C(CC(C)(C)CC4=O)Nc4n[nH]cc43)c2)cc(CC)n1 (stereo not shown) [Compound 929445]
- IC50 [1, 7]: 1000 to 5000 nM
- IC50 [2, 8]: > 5000 nM

SMILES: CC(C)N1CC2(C1)C1=C(CC(C)(C)CC1=O)Nc1n[nH]cc12 [Compound 932650]
- IC50 [1, 7]: > 5000 nM
- IC50 [2, 8]: > 5000 nM

SMILES: C[C@@H]1COCC[C@]12C1=C(CC(C)(C)CC1=O)Nc1n[nH]cc12 [Compound 924310]
- IC50 [1, 7]: > 5000 nM
- IC50 [2, 8]: > 5000 nM

SMILES: CC[C@@]1(c2ccccc2)C2=C(C[C@H](C(F)(F)F)CC2=O)Nc2n[nH]cc21 [Compound 806611]
- IC50 [1, 9]: > 5000 nM
- IC50 [2, 10]: > 5000 nM

SMILES: CC(C)(C)CC(=O)N1CC2(C1)CC1(CO2)C2=C(CC(C)(C)CC2=O)Nc2n[nH]cc21 (stereo not shown) [Compound 947301]
- IC50 [1, 11]: 100 to 1000 nM
- IC50 [2, 12]: 1000 to 5000 nM

SMILES: Cc1cnn(C)c1S(=O)(=O)N1CCC2(CC1)C1=C(CC(C)(C)CC1=O)Nc1n[nH]cc12 [Compound 945658]
- IC50 [1, 3]: 100 to 1000 nM
- IC50 [2, 4]: 1000 to 5000 nM

SMILES: CCC1(c2cccc(C(F)(F)F)c2)C2=C(CCCNC2=O)Nc2n[nH]cc21 (stereo not shown) [Compound 913355]
- IC50 [1, 3]: > 5000 nM
- IC50 [2, 4]: > 5000 nM
